# PubChem BioAssay (NCI)
#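 Grown in 96-well plates, cells were treated for 48 hours with each compound at five concentrations. Insufficient inhibition: endpoint recorded as highest concentration tested. GI50: concentration for 50% inhibition of growth. TGI is the concentration that stops growth completely.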
# What was measured:
# Assay in all cases: growth of human tumour cells (NCI), 48 h
# COLO 205 colon = tested on: COLO 205 colon
# DU-145 prostate = tested on: DU-145 prostate
# HCT-15 colon = tested on: HCT-15 colon
# HL-60(TB) leukemia = tested on: HL-60(TB) leukemia
# MALME-3M melanoma = tested on: MALME-3M melanoma
# OVCAR-4 ovarian = tested on: OVCAR-4 ovarian
# SF-268 CNS = tested on: SF-268 CNS
# SK-MEL-5 melanoma = tested on: SK-MEL-5 melanoma
# SR leukemia = tested on: SR leukemia
# T-47D breast = tested on: T-47D breast
SMILES,TGI (COLO 205 colon) [µM],TGI (DU-145 prostate) [µM],TGI (HCT-15 colon) [µM],TGI (HL-60(TB) leukemia) [µM],TGI (MALME-3M melanoma) [µM],TGI (OVCAR-4 ovarian) [µM],TGI (SF-268 CNS) [µM],TGI (SK-MEL-5 melanoma) [µM],TGI (SR leukemia) [µM],TGI (T-47D breast) [µM],GI50 (COLO 205 colon) [µM],GI50 (DU-145 prostate) [µM],GI50 (HCT-15 colon) [µM],GI50 (HL-60(TB) leukemia) [µM],GI50 (MALME-3M melanoma) [µM],GI50 (OVCAR-4 ovarian) [µM],GI50 (SF-268 CNS) [µM],GI50 (SK-MEL-5 melanoma) [µM],GI50 (SR leukemia) [µM],GI50 (T-47D breast) [µM]
CC(c1ccccc1)n1cncc1C(=O)NN1CCN(C)CC1 (stereo not given),> 10,> 10,> 10,> 10,> 10,> 10,> 10,> 10,> 10,> 10,–,–,–,–,–,–,–,–,–,–
COC(=O)CCC(=O)NC1=C(Nc2ccccc2)C(=O)c2ccccc2C1=O,35.3,23.2,27.6,13.5,5.61,22.9,51.5,3.3,56.7,32.8,–,–,–,–,–,–,–,–,–,–
C=C(CN(CC)CC)C1(c2ccccc2)CC2(CCCC2)C(=O)O1 (stereo not given),> 100,> 100,> 100,> 100,> 100,> 100,> 100,> 100,> 100,> 100,–,–,–,–,–,–,–,–,–,–
Cc1ccc(N=C/C=C(\Nc2ccc(C)cc2)c2ccc3ccccc3c2)cc1,2.38,10.7,4.24,2.02,14,11.2,28.8,12,1.44,23.7,–,–,–,–,–,–,–,–,–,–
COc1cccc(NC(=O)CC(=O)n2nc(-c3ccccc3)c(N=Nc3ccc(Cl)cc3)c2-c2ccccc2)c1,61.6,> 100,> 100,56.1,78.8,> 100,49.4,53.8,> 73.2,> 100,–,–,–,–,–,–,–,–,–,–
CC(OP(=O)(O)O)C(N)C(=O)O (stereo not given),> 100,> 100,> 100,> 100,> 100,> 100,> 100,> 100,> 100,> 100,–,–,–,–,–,–,–,–,–,–
Cn1c2ccc(Cl)cc2c2ccc3c(c21)C(=O)C=CC3=O,> 10,> 10,> 10,> 10,> 10,> 10,> 10,> 10,> 10,> 10,–,–,–,–,–,–,–,–,–,–
COc1ccc(/C=c2\[nH]c3nc(=O)c(N4CCCCC4)c(N)n3c2=O)cc1,> 100,> 100,> 100,> 100,> 100,> 100,> 100,> 100,> 100,> 100,–,–,–,–,–,–,–,–,–,–
O=c1c2ccccc2nc(N/N=C/c2ccc([N+](=O)[O-])cc2)n1-c1ccccc1,> 100,> 100,> 100,> 100,> 100,> 100,59.3,> 100,> 100,> 100,–,–,–,–,–,–,–,–,–,–
O=c1[nH]cc(N=Cc2cc(Cl)ccc2O)c(=O)[nH]1,75.7,66.8,> 100,52.6,73.8,12.3,47.3,> 100,24.8,60.7,–,–,–,–,–,–,–,–,–,–
O=c1cc(-c2ccccc2)oc2c1ccc1[nH]c3ccccc3c(=O)c12,> 100,> 100,> 100,> 100,> 100,> 100,> 100,> 100,> 100,> 100,–,–,–,–,–,–,–,–,–,–
COc1ccc(-n2c(N)c(C#N)c(C#N)c2-c2ccco2)cc1,> 100,> 100,> 100,> 100,> 100,> 100,> 100,> 100,> 100,> 100,–,–,–,–,–,–,–,–,–,–
c1cc2cc3c4c5c(cc6ccc7cc8cc9c%10c8c8c7c6c5c8c5c%10c(c1C9N1CCOCCOCCOCCOCCOCC1)c2c45)C3 (stereo not given),> 100,> 100,> 100,> 100,> 100,> 100,> 100,> 100,> 100,> 100,–,–,–,–,–,–,–,–,–,–
CC(=O)/C=C/c1ccccc1,> 100,> 100,> 100,> 100,> 100,> 100,> 100,61.2,53,> 100,–,–,–,–,–,–,–,–,–,–
C/C(=N\Nc1nc2ccccc2[nH]1)c1ncccn1,> 49.6,> 100,> 100,0.0343,8.89,> 100,> 93.3,1.34,> 100,> 100,–,–,–,–,–,–,–,–,–,–
O=C1C=CC2(O[C@H](C3CCCCC3)[C@@H](C3CCCCC3)O2)C(SC(=O)c2ccccc2)C1 (stereo not given in full),15,10.4,9.47,7.37,10.5,4.01,5.89,5.53,2.36,1.94,–,–,–,–,–,–,–,–,–,–
[N-]=[N+]=Nc1nc2ccccc2c(N=[N+]=[N-])c1Cl,> 100,> 100,> 100,> 100,> 100,> 100,> 100,> 100,> 100,> 100,–,–,–,–,–,–,–,–,–,–
O=C(Nc1ccc(-n2cc(-c3ccncc3)c(-c3ccc(O)c(Cl)c3)n2)cc1)c1ccc(Cl)c(C(F)(F)F)c1,26,> 50,4.39,12.5,6.71,> 50,> 50,5.67,13,37.2,7.67,3.35,1.21,1.83,1.45,2.52,2.79,1.46,1.68,3.43
Cc1nc(C)c(N2CCN(CN)CC2)c(=O)[nH]1,> 100,> 100,> 100,> 100,> 100,> 100,> 100,> 100,> 100,> 100,–,–,–,–,–,–,–,–,–,–
Cc1nc2ccc(Cl)cc2c2c1CCO2,> 100,> 100,> 100,> 100,> 100,> 100,> 100,> 100,> 100,> 100,–,–,–,–,–,–,–,–,–,–
CCOC(=O)CCc1cn2cc(Br)nc(OC)c2n1,> 100,> 100,> 100,> 100,> 100,> 100,> 100,> 100,> 100,> 100,–,–,–,–,–,–,–,–,–,–
COc1cc(S(=O)(=O)Nc2ccc(-c3csc(N4C(=O)C(Cl)C4c4ccccc4O)n3)cc2)ccc1Cl (stereo not given),90.1,66.6,> 100,49.7,> 100,70,> 100,> 100,52,29.5,–,–,–,–,–,–,–,–,–,–
O=CC(O)C(O)C(O)C(O)COC(=O)NCCCCC(=O)C(F)(F)C(F)(F)C(F)(F)C(F)(F)C(F)(F)C(F)(F)C(F)(F)F (stereo not given),61.7,> 100,> 100,> 100,> 100,> 100,93.5,86.8,> 100,> 100,–,–,–,–,–,–,–,–,–,–
NC1CCCCC1NCCNC1CCCCC1N (stereo not given),30.8,> 100,> 100,> 100,> 100,> 100,> 100,> 100,> 100,> 100,–,–,–,–,–,–,–,–,–,–
Cc1cc(C)nc(NS(=O)(=O)c2ccc(NNc3c4ccccc4nc4c(C(=O)Nc5ccc(S(=O)(=O)Nc6cc(C)on6)cc5)cccc34)cc2)n1,> 100,> 100,> 100,80.6,> 100,> 100,81.3,> 100,72.8,> 100,–,–,–,–,–,–,–,–,–,–
C=C(Br)C[N+]12CN3CN(CN(C3)C1)C2,> 100,> 100,> 100,> 100,> 100,> 100,> 100,> 100,> 100,> 100,–,–,–,–,–,–,–,–,–,–
